These results are taken from patent US20170246137A1, “SULFESTROL FOR TREATING CANCER” (CHAMAELEO PHARMA BVBA, priority 2012, published 2017).

The nature of data set [1]: In vitro metabolism in human liver microsomes (STS and CYP). Format: in vitro ADME. Further details: Clint: unit not given here. The note with it: for Clint / Contribution to metabolism / Half-life: 5 μM. How it is done:
In vitro metabolism pathways of DES, Mono-Sulfestrol and Di-Sulfestrol in human liver microsomes were investigated.
Special emphasis was put on desulfatation by steroid sulfatase (STS) and oxidation by cytochrome P (CYP) metabolism. Liver microsomes (Celsis in vitro Technologies) were used at a concentration of 0.5 mg/ml in a volume of 600 μl phosphate buffer pH 7.4. Estrone-3-sulfate was used as positive control.
5 μM of each compound (test and control compound) was added to the liver microsomes and the mixture was incubated at 37° C. for 5, 10, 20, 30, 50, 90 and 120 minutes. After incubation, aliquots of 45 μl were taken which were subsequently quenched with 150 μl ice cold methanol. Aliquots were incubated ≧1 h at −20° C. for protein precipitation. After precipitation, samples were centrifuged and remaining supernatant was used for analysis with LC-MS/MS. Half life of the compounds, speed of metabolism or intrinsic clearance (Clint), and contribution to metabolism of CYP and STS metabolism were calculated based on the data obtained at each time point.

For data set [2], the system named is platelet-rich plasma (PRP). In words: Platelet-aggregation-inducing effects in platelet-rich plasma, absorbance 630 nm. Type of data set: cell-based. The following applies: 7 minutes, human PRP. Here is the method: Blood necessary to generate PRP was obtained from 4 healthy human volunteers. 100 ml of fresh venous blood from each donor was isolated directly into tubes containing 1/10th volume of the anti-coagulant Tri-Sodium Citrate (3.2% w/v). The blood and anti-coagulant were immediately mixed and the final concentration of Tri-Sodium Citrate was 0.0106 M.
PRP was prepared by centrifugation of anti-coagulated blood at 180 g for 10 minutes at room temperature. The cloudy yellow supernatant containing the platelets was removed and placed into a clean polypropylene tube. Platelet-poor plasma (PPP) was prepared by centrifuging the remaining sample at 1,200 g for 20 minutes at room temperature. The PRP was adjusted to a suitable platelet count and absorbance at 630 nm by addition of PPP.
All three compounds were dissolved in 100% DMSO to give a stock concentration of 60 mM. […] […] 100 nM gamma thrombin (Cambridge bioscience) was used as control for platelet aggregation. 90 μl aliquots of PRP were added to 96 wells plates. A baseline absorbance reading was taken at 630 nm. 5 μl of the compounds and gamma thrombin control was added to the appropriate PRP.
The plates were incubated at room temperature for 7 minutes on a plate shaker with continuous shaking. A second A630 nm reading was made after the 7 minutes incubation to measure any platelet aggregation induced by the compounds.

The mark [3] stands for this setting: + NADPH + 667-Coumate (STS inactive, CYP active).
[4] abbreviates: nothing added (STS active, CYP inactive).

In the case of “4-(4-(4-oxidophenyl)hex-3-en-3-yl)phenyl sulfate [Mono-Sulfestrol]”, the “metabolism pathway in human liver microsomes (in words)” value in data set [1] was “metabolized by both STS and CYP enzymes”. The Clint was determined as 51 in data set [1] (setting [3]) and 22 in data set [1] (setting [4]). Besides, the figures for the Contribution to metabolism in data set [1] (setting [3]) and in data set [1] (setting [4]) were 44% and 19%, respectively. Besides, the Half-life came out at 27 min in data set [1] (setting [3]) and 63 min in data set [1] (setting [4]). Also, the “Absorbance (630 nm)” value in data set [2] (2.3 μM, high absorbance = low aggregation) stood at 0.274 ± 0.034; in data set [2] (4.7 μM), 0.277 ± 0.029; in data set [2] (9.4 μM), 0.272 ± 0.029; in data set [2] (18.75 μM) it was 0.275 ± 0.029; in data set [2] (37.5 μM), 0.278 ± 0.030; in data set [2] (75 μM), 0.281 ± 0.031. Further, the “Absorbance (630 nm)” value in data set [2] (150 μM) stood at 0.283 ± 0.036.
